Source: patent US9914732B2, “Diazabicyclo[4.3.1]decane derivatives for treatment of psychiatric disorders” (Max-Planck-Gesellschaft zur Forderung der Wissenschaften …, priority 2014, dated 2018)

Assays:
FKBP51 = molecular target: T1, FKBP51 (Homo sapiens, UniProt Q13451); test: Fluorescence polarization (FP) assay, binding to the FK506-binding domain of FKBP51; settings: FK506-binding domain of FKBP51 (FKBP51FK1), competition with fluorescent ligand 2b
T1 sequence (Q13451 42-130 limits assumed): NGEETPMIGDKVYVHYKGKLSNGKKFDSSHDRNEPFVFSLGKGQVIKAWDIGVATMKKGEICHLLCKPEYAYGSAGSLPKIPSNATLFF
Summary of the method: (§1)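 Competitive FP with fluorescent ligand 2b at 20 nM (2× concentration) and FK1 domain at 280 nM (FKBP51) or 400 nM (FKBP52) in 20 mM HEPES pH 8, 0.01% Triton-X100. Anisotropy read after 30 min at room temperature (ex 485, em 535 nm), in duplicate; IC50 by four-parameter fit, Ki via Wang competitive equation.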

FKBP52 = molecular target: T2, FKBP52 (Homo sapiens, UniProt Q02790); test: Fluorescence polarization (FP) assay, binding to the FK506-binding domain of FKBP52; settings: FK506-binding domain of FKBP52 (FKBP52FK1), competition with fluorescent ligand 2b
T2 sequence (Q02790 50-138 limits assumed): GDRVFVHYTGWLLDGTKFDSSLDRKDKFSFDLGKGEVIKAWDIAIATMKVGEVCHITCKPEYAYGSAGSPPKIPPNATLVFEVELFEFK
Summary of the method: as §1

Structure (SMILES) | Ki (FKBP51) | Ki (FKBP52)
C#CCN1C[C@H](COC)[C@H]2CCC[C@@H](C1=O)N2S(=O)(=O)c1cc(Br)cc(C(=O)OC)c1 [Compound N11, methyl 3-bromo-5-(((1S,5S,6R)-5-(methoxymethyl)-2-oxo-3-(prop-2-yn-1-yl)-3,10-diazabicyclo[4.3.1]decan-10-yl)sulfonyl)benzoate] | 100 to 500 nM | 100 to 500 nM
C#CCN1C[C@H](COC)[C@H]2CCC[C@@H](C1=O)N2S(=O)(=O)c1cc(Cl)cc(C(=O)OC)c1 [Compound N12, methyl 3-chloro-5-(((1S,5S,6R)-5-(methoxymethyl)-2-oxo-3-(prop-2-yn-1-yl)-3,10-diazabicyclo[4.3.1]decan-10-yl)sulfonyl)benzoate] | 100 to 500 nM | 100 to 500 nM
C#CCN1C[C@H](COC)[C@H]2CCC[C@@H](C1=O)N2S(=O)(=O)c1cccnc1 [Compound N13, (1S,5S,6R)-5-(methoxymethyl)-3-(prop-2-yn-1-yl)-10-(pyridin-3-ylsulfonyl)-3, 10-diazabicyclo[4.3.1]decan-2-one] | 500 to 1000 nM | 500 to 1000 nM
C#CCN1C[C@H](COC)[C@H]2CCC[C@@H](C1=O)N2S(=O)(=O)c1ccc(-c2ccccc2)nc1 [Compound N14, (1S,5S,6R)-5-(methoxymethyl)-10-((6-phenylpyridin-3-yl)sulfonyl)-3-(prop-2-yn-1-yl)-3,10-diazabicyclo[4.3.1]decan-2-one] | 100 to 500 nM | 100 to 500 nM
C#CCN1C[C@H](COC)[C@H]2CCC[C@@H](C1=O)N2S(=O)(=O)c1ccc(-c2ncccn2)cc1 [Compound N15, (1S,5S,6R)-5-(methoxymethyl)-3-(prop-2-yn-1-yl)-10-((4-(pyrimidin-2-yl)phenyl)sulfonyl)-3,10-diazabicyclo[4.3.1]decan-2-one] | 100 to 500 nM | 100 to 500 nM
C#CCN1C[C@H](COC)[C@H]2CCC[C@@H](C1=O)N2S(=O)(=O)c1nc2ccccc2[nH]1 [Compound N16, (1S,5S,6R)-10-((1H-benzo[d]imidazol-2-yl)sulfonyl)-5-(methoxymethyl)-3-(prop-2-yn-1-yl)-3,10-diazabicyclo[4.3.1]decan-2-one] | 100 to 500 nM | 100 to 500 nM
COC[C@H]1CN(Cc2cnn[nH]2)C(=O)[C@@H]2CCC[C@H]1N2S(=O)(=O)c1cccc(F)c1 [Compound N17, (1S,5S,6R)-3-((1H-1,2,3-triazol-5-yl)methyl)-10-((3-fluorophenyl)sulfonyl)-5-(methoxymethyl)-3,10-diazabicyclo[4.3.1]decan-2-one] | ≤ 100 nM | ≤ 100 nM
COC[C@H]1CN(Cc2cnn[nH]2)C(=O)[C@@H]2CCC[C@H]1N2S(=O)(=O)c1cc(Br)cc(Br)c1 [Compound N18, (1S,5S,6R)-3-((1H-1,2,3-triazol-5-yl)methyl)-10-((3,5-dibromophenyl)sulfonyl)-5-(methoxymethyl)-3,10-diazabicyclo[4.3.1]decan-2-one] | ≤ 100 nM | ≤ 100 nM
COC[C@H]1CN(Cc2cnn[nH]2)C(=O)[C@@H]2CCC[C@H]1N2S(=O)(=O)c1cccc(C(N)=O)c1 [Compound N19, 3-(((1S,5S,6R)-3-((1H-1,2,3-triazol-5-yl)methyl)-5-(methoxymethyl)-2-oxo-3,10-diazabicyclo[4.3.1]decan-10-yl)sulfonyl)benzamide] | ≤ 100 nM | ≤ 100 nM
COC[C@H]1CN(Cc2cnn[nH]2)C(=O)[C@@H]2CCC[C@H]1N2S(=O)(=O)c1cc(Br)cc(C(N)=O)c1 [Compound N20, 3-(((1S,5S,6R)-3-((1H-1,2,3-triazol-5-yl)methyl)-5-(methoxymethyl)-2-oxo-3,10-diazabicyclo[4.3.1]decan-10-yl)sulfonyl)-5-bromobenzamide] | ≤ 100 nM | ≤ 100 nM
COC[C@H]1CN(Cc2cnn[nH]2)C(=O)[C@@H]2CCC[C@H]1N2S(=O)(=O)c1cc(Cl)cc(C(N)=O)c1 [Compound N21, 3-(((1S,5S,6R)-3-((1H-1,2,3-triazol-5-yl)methyl)-5-(methoxymethyl)-2-oxo-3,10-diazabicyclo[4.3.1]decan-10-yl)sulfonyl)-5-chlorobenzamide] | ≤ 100 nM | ≤ 100 nM
COC[C@H]1CN(Cc2cnn[nH]2)C(=O)[C@@H]2CCC[C@H]1N2S(=O)(=O)c1ccc(NC(C)=O)c(Br)c1 [Compound N22, N-(4-(((1S,5S,6R)-3-((1H-1,2,3-triazol-5-yl)methyl)-5-(methoxymethyl)-2-oxo-3,10-diazabicyclo[4.3.1]decan-10-yl)sulfonyl)-2-bromophenyl)acetamide] | ≤ 100 nM | ≤ 100 nM
COC[C@H]1CN(Cc2cnn[nH]2)C(=O)[C@@H]2CCC[C@H]1N2S(=O)(=O)c1ccc(NC(C)=O)c(Cl)c1 [Compound N23, N-(4-(((1S,5S,6R)-3-((1H-1,2,3-triazol-5-yl)methyl)-5-(methoxymethyl)-2-oxo-3,10-diazabicyclo[4.3.1]decan-10-yl)sulfonyl)-2-chlorophenyl)acetamide] | ≤ 100 nM | ≤ 100 nM
COC[C@H]1CN(Cc2cnn[nH]2)C(=O)[C@@H]2CCC[C@H]1N2S(=O)(=O)c1cc(Cl)c(NC(C)=O)c(Cl)c1 [Compound N24, N-(4-(((1S,5S,6R)-3-((1H-1,2,3-triazol-5-yl)methyl)-5-(methoxymethyl)-2-oxo-3,10-diazabicyclo[4.3.1]decan-10-yl)sulfonyl)-2,6-dichlorophenyl)acetamide] | ≤ 100 nM | ≤ 100 nM
COC[C@H]1CN(Cc2cnn[nH]2)C(=O)[C@@H]2CCC[C@H]1N2S(=O)(=O)c1cccnc1 [Compound N25, (1S,5S,6R)-3-((1H-1,2,3-triazol-5-yl)methyl)-5-(methoxymethyl)-10-(pyridin-3-ylsulfonyl)-3,10-diazabicyclo[4.3.1]decan-2-one] | ≤ 100 nM | ≤ 100 nM
COC[C@H]1CN(Cc2cnn[nH]2)C(=O)[C@@H]2CCC[C@H]1N2S(=O)(=O)c1ccc(-c2ccccc2)nc1 [Compound N26, (1S,5S,6R)-3-((1H-1,2,3-triazol-5-yl)methyl)-5-(methoxymethyl)-10-((6-phenylpyridin-3-yl)sulfonyl)-3,10-diazabicyclo[4.3.1]decan-2-one] | ≤ 100 nM | ≤ 100 nM
COC[C@H]1CN(Cc2cnn[nH]2)C(=O)[C@@H]2CCC[C@H]1N2S(=O)(=O)c1ccc(-c2ncccn2)cc1 [Compound N27, (1S,5S,6R)-3-((1H-1,2,3-triazol-5-yl)methyl)-5-(methoxymethyl)-10-((4-(pyrimidin-2-yl)phenyl)sulfonyl)-3,10-diazabicyclo[4.3.1]decan-2-one] | ≤ 100 nM | ≤ 100 nM
COC[C@H]1CN(Cc2cnn[nH]2)C(=O)[C@@H]2CCC[C@H]1N2S(=O)(=O)c1nc2ccccc2[nH]1 [Compound N28, (1S,5S,6R)-3-((1H-1,2,3-triazol-5-yl)methyl)-10-((1H-benzo[d]imidazol-2-yl)sulfonyl)-5-(methoxymethyl)-3,10-diazabicyclo[4.3.1]decan-2-one] | ≤ 100 nM | ≤ 100 nM
COC[C@H]1CN(Cc2cnnn2Cc2ccccc2)C(=O)[C@@H]2CCC[C@H]1N2S(=O)(=O)c1cccc(F)c1 [Compound N30, (1S,5S,6R)-3-((1-benzyl-1H-1,2,3-triazol-5-yl)methyl)-10-((3-fluorophenyl)sulfonyl)-5-(methoxymethyl)-3,10-diazabicyclo[4.3.1]decan-2-one] | 100 to 500 nM | 100 to 500 nM
COC[C@H]1CN(Cc2cnnn2C(=O)c2ccccc2)C(=O)[C@@H]2CCC[C@H]1N2S(=O)(=O)c1cccc(F)c1 [Compound N31, (1S,5S,6R)-3-((1-benzoyl-1H-1,2,3-triazol-5-yl)methyl)-10-((3-fluorophenyl)sulfonyl)-5-(methoxymethyl)-3,10-diazabicyclo[4.3.1]decan-2-one] | 100 to 500 nM | 100 to 500 nM
COC[C@H]1CN(Cc2cnnn2S(=O)(=O)c2ccccc2)C(=O)[C@@H]2CCC[C@H]1N2S(=O)(=O)c1cccc(F)c1 [Compound N32, (1S,5S,6R)-10-((3-fluorophenyl)sulfonyl)-5-(methoxymethyl)-3-((1-(phenylsulfonyl)-1H-1,2,3-triazol-5-yl)methyl)-3,10-diazabicyclo[4.3.1]decan-2-one] | 100 to 500 nM | 100 to 500 nM
COc1ccc(OCCN2CCC3CCCC(C2=O)N3S(=O)(=O)c2cc(Cl)cc(Cl)c2)cc1OC (centres unmarked) [Ref. 1, reference compound] | 1000 to 5000 nM | 1000 to 5000 nM
COc1ccc(OCCN2CCC3CCCC(C2=O)N3S(=O)(=O)c2ccc3ncsc3c2)cc1OC (centres unmarked) [Ref. 2, reference compound] | 1000 to 5000 nM | 1000 to 5000 nM
COc1ccc(OCCN2CCC3CCCC(C2=O)N3S(=O)(=O)c2cc(Cl)c(O)c(Cl)c2)cc1OC (centres unmarked) [Ref. 3, reference compound] | 1000 to 5000 nM | 1000 to 5000 nM
O=C1NCCC2CCCC1N2S(=O)(=O)c1ccc2sc(=O)[nH]c2c1 (centres unmarked) [Ref. 4, reference compound] | > 5000 nM | > 5000 nM
